Tests used:
[1] = biological target: T1, PSMA on LNCaP cells (Homo sapiens, UniProt Q04609); design: host or cells: LNCaP; settings: binding to PSMA on LNCaP cells; cited from earlier work
[2] = test system: LNCaP xenograft tumor-bearing mice; test: Biodistribution of 225Ac-macropa-RPS-070 in LNCaP xenograft mice; assay type: in vivo; settings: 4-96 h; no accumulation in liver, spleen, bone
Procedure: Cell Culture. […] Cell culture supplies were from Invitrogen unless otherwise noted.
Inoculation of Mice with Xenografts. All animal studies were approved by the Institutional Animal Care and Use Committee of Weill Cornell Medicine and were undertaken in accordance with the guidelines set forth by the USPHS Policy on Humane Care and Use of Laboratory Animals. Animals were housed under standard conditions in approved facilities with 12 h light/dark cycles. Food and water was provided ad libitum throughout the course of the studies. Hairless male nu/nu mice were purchased from the Jackson Laboratory. For inoculation in mice, LNCaP cells were suspended at 4×10^7 cells/mL in a 1:1 mixture of PBS:Matrigel (BD Biosciences). Each mouse was injected in the left flank with 0.25 mL of the cell suspension. Biodistributions were conducted when tumors were in the range 100-400 mm^3.
Biodistribution of ^225Ac-macropa-RPS-070 in LNCaP xenograft mice. […] Tissues were weighed and counted on a 2470 Wizard Automatic Gamma Counter (Perkin Elmer). 1% ID/mL samples were counted prior to and following each set of tissue samples to enable decay correction to be undertaken. Counts were corrected for decay and for activity injected, and tissue uptake was expressed as percent injected dose per gram (% ID/g). Standard error measurement was calculated for each data point.

[3] = biological target: T1, PSMA on LNCaP cells; test: cell-based
Procedure: The PSMA expressing human prostate cancer cell line, LNCaP, was obtained from the American Type Culture Collection. […] LNCaP cells were maintained in RPMI-1640 medium supplemented with 10% fetal bovine serum (Hyclone), 4 mM L-glutamine, 1 mM sodium pyruvate, 10 mM N-2-hydroxyethylpiperazine-N-2-ethanesulfonic acid (HEPES), 2.5 mg/mL D-glucose, and 50 μg/mL gentamicin in a humidified incubator at 37° C./5% CO2. Cells were removed from flasks for passage or for transfer to 12-well assay plates by incubating them with 0.25% trypsin/ethylenediaminetetraacetic acid (EDTA).
Briefly, LNCaP cells were plated 72 h prior to the experiment to achieve a density of approximately 5×10^5 cells/well (in triplicate) in RPMI-1640 medium supplemented with 0.25% bovine serum albumin. The cells were incubated for 2 h with 1 nM ^99mTc-MIP-1427 in RPMI-1640 medium containing 0.00125% w/v bovine serum albumin [3] in the presence of 0.001-10,000 nM test compounds. Radioactive incubation media was then removed by pipette and the cells were washed twice using 1 mL ice-cold PBS 1× solution. Cells were harvested from the plates following treatment with 1 mL 1M NaOH and transferred to tubes for radioactive counting using a 2470 Wizard^2 Automatic Gamma Counter (Perkin Elmer). […] IC50 values were determined by fitting the data points to a sigmoidal Hills1 curve in Origin software.

T1 sequence (Q04609 whole entry): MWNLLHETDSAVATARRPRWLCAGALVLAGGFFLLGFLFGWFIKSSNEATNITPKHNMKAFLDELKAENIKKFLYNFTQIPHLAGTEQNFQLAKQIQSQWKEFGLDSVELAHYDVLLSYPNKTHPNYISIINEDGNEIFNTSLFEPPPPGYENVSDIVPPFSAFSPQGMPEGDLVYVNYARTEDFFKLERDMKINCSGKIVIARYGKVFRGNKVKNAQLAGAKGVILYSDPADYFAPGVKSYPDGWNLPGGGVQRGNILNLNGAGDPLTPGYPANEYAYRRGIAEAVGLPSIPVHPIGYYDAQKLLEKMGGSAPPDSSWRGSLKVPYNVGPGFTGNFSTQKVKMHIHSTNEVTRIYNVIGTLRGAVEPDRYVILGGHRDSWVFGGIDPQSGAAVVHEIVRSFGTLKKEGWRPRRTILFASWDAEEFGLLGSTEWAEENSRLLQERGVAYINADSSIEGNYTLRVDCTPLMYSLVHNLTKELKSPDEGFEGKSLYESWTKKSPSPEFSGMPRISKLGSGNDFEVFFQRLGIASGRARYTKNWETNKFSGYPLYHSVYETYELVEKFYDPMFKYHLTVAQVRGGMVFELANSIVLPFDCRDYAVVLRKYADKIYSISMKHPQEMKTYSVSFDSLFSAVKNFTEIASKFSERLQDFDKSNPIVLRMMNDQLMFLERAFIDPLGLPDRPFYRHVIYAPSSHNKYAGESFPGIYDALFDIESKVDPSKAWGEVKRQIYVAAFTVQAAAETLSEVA

In the case of “^99mTc-((7S,12S,16S)-1-(1-(carboxymethyl)-1H-imidazol-2-yl)-2-((1-(carboxymethyl)-1H-imidazol-2-yl)methyl)-9,14-dioxo-2,8,13,15-tetraazaoctadecane-7,12,16,18-tetracarboxylic acid technetium tricarbonyl complex) [^99mTc-MIP-1427]”, the Kd [1] is listed as 0.64 ± 0.46 nM.

In the case of O=C(O)CC[C@H](NC(=O)N[C@@H](CCCCNC(=O)Nc1cccc(-c2cn(CCOCCOCCOCCOCCOCCOCCC(=O)N[C@@H](CCCCNC(=S)Nc3cc(CN4CCOCCOCCN(Cc5cccc(C(=O)O)n5)CCOCCOCC4)nc(C(=O)O)c3)C(=O)N[C@@H](CCCCNC(=O)Cc3ccc(I)cc3)C(=O)O)nn2)c1)C(=O)O)C(=O)O [macropa-RPS-070, (((S)-1-Carboxy-5-(3-(3-(1-((23S,26S)-26-carboxy-23-(4-(3-(2-carboxy-6-((16-((6-carboxypyridin-2-yl)methyl)-1,4,10,13-tetraoxa-7,16-diazacyclooctadecan-7-yl)methyl)pyridin-4-yl)thioureido)butyl)-33-(4-iodophenyl)-21,24,32-trioxo-3,6,9,12,15,18-hexaoxa-22,25,31-triazatritriacontyl)-1H-1,2,3-triazol-4-yl)phenyl)ureido)pentyl)carbamoyl)-L-glutamic acid], the “Retention of 225Ac in vivo” value [2] is reported as “can stably retain ^225Ac in vivo over several days”.

O=C(O)CC[C@H](NC(=O)N[C@@H](CCCCNC(=O)Nc1cccc(-c2cn(CCOCCOCCOCCC(=O)N[C@@H](CCCCNC(=S)Nc3cc(CN4CCOCCOCCN(Cc5cccc(C(=O)O)n5)CCOCCOCC4)nc(C(=O)O)c3)C(=O)NCCOCCOCCOCCOCCOCCOCCOCCOCCC(=O)N[C@@H](CCCCNC(=O)CCCc3ccc(I)cc3)C(=O)O)nn2)c1)C(=O)O)C(=O)O [RPS-074, (((S)-1-Carboxy-5-(3-(3-(1-((14S,45S)-45-carboxy-14-(4-(3-(2-carboxy-6-((16-((6-carboxypyridin-2-yl)methyl)-1,4,10,13-tetraoxa-7,16-diazacyclooctadecan-7-yl)methyl)pyridin-4-yl)thioureido)butyl)-54-(4-iodophenyl)-12,15,43,51-tetraoxo-3,6,9,19,22,25,28,31,34,37,40-undecaoxa-13,16,44,50-tetraazatetrapentacontyl)-1H-1,2,3-triazol-4-yl)phenyl)ureido)pentyl)carbamoyl)-L-glutamic acid] gave an IC50 [3] of 12 ± 3.4 nM.

From patent US11285227B2, “Trifunctional constructs with tunablepharmacokinetics useful in imaging and anti-tumor therapies” (CORNELL UNIVERSITY, priority 2017, dated 2022)
